Test [1] deals with T1, CBG partially purified from rat plasma (Rattus norvegicus, UniProt P31211).
T1 construct: CBG partially purified from rat plasma; from tissue; host or cells: rat plasma, partially purified
T1 sequence (P31211 23-396): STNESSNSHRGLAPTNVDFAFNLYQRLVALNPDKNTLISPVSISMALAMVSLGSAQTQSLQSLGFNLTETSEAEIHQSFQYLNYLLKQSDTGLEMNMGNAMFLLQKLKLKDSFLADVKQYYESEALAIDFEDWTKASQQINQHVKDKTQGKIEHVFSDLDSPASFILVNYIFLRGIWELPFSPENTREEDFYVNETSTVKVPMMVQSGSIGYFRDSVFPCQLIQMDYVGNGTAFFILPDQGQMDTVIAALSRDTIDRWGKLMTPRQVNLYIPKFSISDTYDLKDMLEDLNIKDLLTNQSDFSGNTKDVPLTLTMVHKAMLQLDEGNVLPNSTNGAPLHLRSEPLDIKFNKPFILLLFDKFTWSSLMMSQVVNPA
The experiment in a line: displacement of (^3 H)-B binding to partially purified CBG. The method, then:
Relative binding affinity (RBA) for partially purified CBG was determined by steroid competition for (^3 H)-B binding as described previously (14).
The displacement curve of 6,19-oxidoprogesterone is included for comparative purposes.

For another test, the system named is liver glycogen. The experiment in a line: liver glycogen deposition in vivo, adrenalectomized rats. To be noted: FIG. 3-A; 100 μg steroid/100 g body weight. Details: species or system rat. As for the experimental part:
FIG. 3: Biological Properties of 21OH-6OP: A) Glycogen storage in vivo: 100 μg steroid/100 g body weight of male rats were injected as indicated in Example 1. Liver glycogen was purified and quantified with Krisman's reagent (17). Controls were injected with vehicle. Results are expressed as means±SEM (n=6). (*): different from controls P<0.02. B) TAT induction in vitro: rat hepatocytes were incubated for 5 h in HAM-F12 medium in the presence of 100 nM steroid and TAT activity was measured. Results are expressed as percentage of enzyme activity (means±SEM, n=4) over controls incubated in the presence of vehicle. (*) different from controls P<0.01. C) Sodium-retaining activity: adrenalectomized rats were treated with the indicated dose of steroids. Results are expressed as the ratio of sodium-excretion rates of steroid-injected animals to the excretion rates of rats injected with vehicle.
Bioassay : Liver glycogen deposition was measured on adrenalectoniized male Sprague-Dawley rats (180-220 g) as follows: steroids were dissolved in ethanol/propylene glycol/0.9% NaCl solution (3:3:34) and 100 μg steroid/l00 g body weight were injected i.m. the previous night. On the morning of the experiment this dose was reinjected intraperitoneally. Three hours later the rats were killed by cervical dislocation and livers were immediately removed. Glycogen purification and quantification were carried out according to Krisman's method (17). Na^+ -retaining properties were measured as described (5). Tyrosine aminotransferase (TAT) was induced in rat hepatocytes isolated by the procedure of Fry et al (18). TAT activity was determined according to Granner and Tomkins (19).

SMILES strings stand for the structures. pKd: −log10 of the molar value.

The pKd is the negative decadic logarithm of the Kd, by convention in mol/L. As for `C[C@]12CC[C@H]3[C@@H](C[C@H]4OC[C@@]35CCC(=O)C=C45)[C@@H]1CC[C@@H]2C(=O)CO` [21OH-6OP, 21-hydroxy-6,19-oxidoprogesterone], the “increase of binding to CBG by 21-hydroxyl, relative to 6OP” value in test [1] (21OH-6OP vs 6OP) is on record as “hundred times”. Moreover, in test [1] (12 h, 2.5 μM, FIG. 2-B, read-out: block of CBG binding sites), the inhibition at 2.5 µM was roughly 60%. The negative logarithm of the Kd (pKd) in test [1] (partially purified CBG, (^3 H)-B, 12 h at 0° C., read-out: RBA for CBG (Kd)) is 5.90. Also, in the test on liver glycogen, the “GC response: liver glycogen” value is recorded as “neither 6OP nor 21OH-6OP evoke these responses”.

The values are drawn from patent US6303591A, “21-hydroxy-6,19-oxidoprogesterone (21OH-6OP) and its use as medicament for treating excess of glucocorticoids” (Applied Research Systems ARS Holding NV, priority 1997, dated 2001).
